Experimental data reported in patent US11161849B2, “Inhibiting the transient receptor potential al ion channel” (Eli Lilly and Company, priority 2018, dated 2021).

Legend:
[1] = Solubility in Normal Ringer Solution; type: physicochemical; details: saline or isotonic, kinetic from dmso stock, pH 7.4 at room temperature, 40 minutes incubation, from 10 mM DMSO stock
Protocol: Compounds of the invention were also tested for solubility in Normal Ringer Solution. Briefly, compound solubility was determined by dissolving a standard range of volumes of 10 mM DMSO stock of compounds in Normal Ringer Solution (pH 7.4 at room temperature). Following vortex and incubation for 40 minutes at room temperature, solutions were filtered, quenched with acetonitrile, and analyzed by Liquid Chromatography. Solubility limits were determined by comparison to a standard curve. […] Solubility is reported as “greater than” if the observed increase between the last 2 dilutions tested is greater than 2-fold.

human TRPA1 = human TRPA1 (Homo sapiens (Human), UniProt O75762); test: Inhibition of human TRPA1 in whole cell patch configuration (10 μM AITC activation); type: cell-based; details: current activation 10 μM AITC, tested concentrations 320 pM to 3.2 μM, read-out: hTRPA1 IC50
human TRPA1, sequence (O75762 whole entry): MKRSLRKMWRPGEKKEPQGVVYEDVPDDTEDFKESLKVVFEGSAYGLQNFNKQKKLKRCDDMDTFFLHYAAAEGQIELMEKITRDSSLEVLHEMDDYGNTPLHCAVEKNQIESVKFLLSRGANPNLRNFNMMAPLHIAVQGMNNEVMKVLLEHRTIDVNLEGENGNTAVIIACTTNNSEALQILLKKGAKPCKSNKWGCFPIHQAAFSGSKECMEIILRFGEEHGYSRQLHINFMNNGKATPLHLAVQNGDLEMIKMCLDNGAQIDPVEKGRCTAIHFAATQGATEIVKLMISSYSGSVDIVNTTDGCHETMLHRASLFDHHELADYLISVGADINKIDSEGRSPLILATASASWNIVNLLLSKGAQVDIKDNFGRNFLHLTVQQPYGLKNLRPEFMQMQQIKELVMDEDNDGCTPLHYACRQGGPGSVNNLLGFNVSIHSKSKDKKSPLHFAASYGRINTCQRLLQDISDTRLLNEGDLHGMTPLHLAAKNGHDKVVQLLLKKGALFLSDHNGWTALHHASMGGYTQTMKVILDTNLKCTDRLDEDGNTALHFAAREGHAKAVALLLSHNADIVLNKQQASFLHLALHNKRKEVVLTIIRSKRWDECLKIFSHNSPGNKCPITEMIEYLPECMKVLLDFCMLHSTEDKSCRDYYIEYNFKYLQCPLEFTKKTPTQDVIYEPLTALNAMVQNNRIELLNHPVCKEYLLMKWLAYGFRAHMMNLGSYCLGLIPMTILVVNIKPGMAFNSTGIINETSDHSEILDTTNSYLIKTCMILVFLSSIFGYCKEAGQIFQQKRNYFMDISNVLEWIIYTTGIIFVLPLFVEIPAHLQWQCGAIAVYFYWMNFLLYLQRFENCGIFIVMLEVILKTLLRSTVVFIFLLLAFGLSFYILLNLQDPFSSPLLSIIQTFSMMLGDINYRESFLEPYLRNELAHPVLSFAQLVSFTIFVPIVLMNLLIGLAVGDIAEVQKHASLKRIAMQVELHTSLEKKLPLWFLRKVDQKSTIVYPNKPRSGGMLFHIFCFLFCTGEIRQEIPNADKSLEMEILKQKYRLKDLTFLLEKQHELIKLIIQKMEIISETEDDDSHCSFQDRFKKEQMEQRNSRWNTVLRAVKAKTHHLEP
Protocol: Data for TRPA1 inhibition was obtained by this method for the indicated compounds of Formula (I), (II), or (III), with the relevant data included in Table 2 below. All currents were recorded in whole-cell configuration using EPC-9 and EPC-10 amplifiers and Patchmaster software (HEKA) or similar. […] The standard pipette solution consisted of 140 mM CsAsp, 10 mM EGTA, 10 mM HEPES, […], 1.91 mM CaCl2, and up to 0.3 mM Na2GTP, with pH adjusted to 7.2 with CsOH. In addition, a solution containing 145 mM CsCl, 10 mM HEPES, 10 mM EGTA, and up to 0.3 mM Na2GTP and 1 mM MgCl2 (pH 7.2 adjusted with CsOH) can be used. The standard bath solution contained 150 mM NaCl, 10 mM HEPES, 10 mM glucose, 4.5 mM KCl, 1 mM EGTA, 3 mM MgCl2, with pH adjusted to 7.4 with NaOH. In some instances, 2 mM CaCl2 was added in place of EGTA and the concentration of MgCl2 was reduced to 1 mM.
Data were collected either by continuous recordings at −60 mV or by applying voltage ramps from a holding potential of −40 mV every 4 s. Continuous recordings were collected at 400 Hz and digitally filtered off-line at 10 Hz for presentation. Voltage ramps were applied from −100 mV or −80 mV to +100 mV or +80 mV over the course of 400 ms, and data were collected at 10 kHz and filtered at 2.9 kHz. Inward and outward currents were analyzed from the ramps at −80 and 80 mV, respectively. Liquid junction potential correction was not used.
Solutions were switched using a gravity-fed continuous focal perfusion system. To achieve rapid temperature changes, two temperature control, and perfusion systems were employed simultaneously. For temperatures greater than or equal to 22° C., a Warner Instruments bipolar temperature controller (TC-344B) and inline heater (SHM-8) were used. For temperatures below 22° C. a Warner Instruments temperature controller (CL-100) and thermal cooling module (TCM-1) were used. Temperatures were confirmed using a thermistor (Warner Instruments, TA-29), with temperatures at the recorded cell estimated to be within +/−2° C. of those reported.
The antagonist effects of compounds of Formula (I), (II), or (III) against human TRPA1 (“hTRPA1”) in a whole cell patch configuration were evaluated using the in vitro assay described above. The current activation tested was 10 μM AITC, and the tested concentrations ranged from 320 pM to 3.2 μM.

Structure (SMILES) | solubility at 40 min [1] [µM] | IC50 (human TRPA1) [nM]
CC(=O)NC(=O)Cn1c(=O)c2c(ncn2[C@@H](C)C(=O)Nc2cccc(-c3cnc(C(F)(F)F)nc3)n2)n(C)c1=O [Compound 103] | > 31.3 | 47.6
C[C@@H](C(=O)Nc1cccc(-c2cnc(C(F)(F)F)nc2)n1)n1cnc2c1c(=O)n(CC(N)=O)c(=O)n2C [Compound 105] | > 31.3 | 566
CC(=O)NC(=O)Cn1c(=O)c2c(ncn2[C@@H](C)C(=O)Nc2cncc(-c3cnc(C(F)(F)F)nc3)n2)n(C)c1=O [Compound 102] | > 31.3 | 172

Next, values leading:

solubility at 40 min [1] [µM] | IC50 (human TRPA1) [nM] | Structure (SMILES)
> 31.3 |  | [2H]C([2H])([2H])n1c(=O)n(Cc2nc(C)no2)c(=O)c2c1ncn2C(C)C(=O)Nc1cccc(-c2cnc(C(F)(F)F)nc2)n1 (centres unmarked) [Compound 107]
> 31.3 | > 10000 | Cc1noc(Cn2c(=O)[nH]c3ncn(C(C)C(=O)Nc4cncc(-c5cnc(C(F)(F)F)nc5)n4)c3c2=O)n1 (centres unmarked) [Compound 100]
> 31.3 |  | [2H]C([2H])([2H])n1c(=O)n(Cc2nc(C)no2)c(=O)c2c1ncn2C(C)C(=O)Nc1cncc(-c2cnc(C(F)(F)F)nc2)n1 (centres unmarked) [Compound 106]
> 31.3 | 7090 | C[C@@H](C(=O)Nc1cncc(-c2cnc(C(F)(F)F)nc2)n1)n1cnc2c1c(=O)n(CC(N)=O)c(=O)n2C [Compound 104]
> 31.3 | 559 | Cc1noc(Cn2c(=O)[nH]c3ncn(C(C)C(=O)Nc4cccc(-c5cnc(C(F)(F)F)nc5)n4)c3c2=O)n1 (centres unmarked) [Compound 101]
